Measured values as given in patent US12383573B2, “Use of luteolin-7-O-glucoside or luteolin-7-O-glucuronide in preparation of medicine for eye injuries” (BEIJING CHENGYI INVESTMENT CO., LTD., priority 2019, dated 2025).

What was measured:
Type in all cases: cell-based
[1] = tested on: human retinal pigment epithelial cells ARPE-19; experiment: Hoechst 33342 nuclear staining (apoptosis) in blue light-damaged ARPE-19 cells; details: A2E + blue light, vs model group
Description: The cells were seeded in a 24-well plate (5×10^4 cells/well), and after the treatment as previously described, the fix solution was added and incubated for 30 min. Then the cells were washed three times with PBS, added with live cell staining solution (Hoechst 33342) with a concentration of 20 μg/mL, and incubated for 15 min at room temperature shielded from light. After the cells were washed with PBS, imaging was performed under an inverted fluorescence microscope with an excitation wavelength of 365 nm and an emission wavelength of 460 nm.

[2] = tested on: human retinal pigment epithelial cells ARPE-19; experiment: Cytotoxicity on human retinal pigment epithelial cells ARPE-19 (MTT); details: ARPE-19, 12.5˜100 μmol/L, 24 h
Description: ARPE-19 cells (purchased from Guangzhou Jinnuo Biotechnology Co., Ltd., China) were seeded into RPMI-1640 low-glucose cell culture medium containing 10% fetal bovine serum and 1% dual-antibiotics (penicillin-streptomycin) (culture medium containing 2 g/L D-glucose, 0.3 g/L L-glutamine and 2 g/L sodium bicarbonate), and the medium was replaced once every 3 days for future use.
Cells at exponential growth phase were used, and 100 μl of complete medium was added to each well to reach a concentration of 1×10^4 cells/mL. Then the cells were cultured in a humidified atmosphere at 37° C. and 5% CO2 for 24 h. After the cells fully adhered, luteolin-7-O-glucoside and luteolin-7-O-glucuronide with final concentrations of 12.5 μmol/L, 25 μmol/L, 50 μmol/L, and 100 μmol/L were added respectively, and cultured for 24 h.
The cell viability was determined by the 3-(4,5-dimethyl-2-thiazolyl)-2,5-diphenyl-2-H-tetrazolium […] (MTT) method: 20 μl of 5 mg/ml MTT was added to each well, and the cells were cultured in a CO2 incubator for 4 h, with all operations shielded from light. […] The absorbance of ARPE-19 cells was measured with a microplate reader at 490 nm, and the cell survival rate was calculated as follows: cell survival rate=(OD value of experimental group−OD value of blank group)/(OD of control group−OD of blank group)×100%.

[3] = tested on: human retinal pigment epithelial cells ARPE-19; experiment: Intracellular ROS content by DHE staining in blue light-damaged ARPE-19 cells; details: A2E + blue light, vs model group
Description: A single layer of ARPE-19 cells were seeded and cultured in a 24-well plate with a cell concentration of 5×10^4 cells/well. After treatment as described in Example 2, the cells were washed twice with PBS and reactive oxygen species (ROS) fluorescent probe dihydroethidium (DHE) staining solution with a concentration of 20 μmol/L was added, and the cells were incubated at 37° C. for 20 min. Then, the cells were washed twice with PBS to fully remove the DHE probe that had not entered the cell, and then imaging was performed under an inverted microscope with an excitation wavelength of 540 nm and an emission wavelength of 590 nm.

[4] = tested on: human retinal pigment epithelial cells ARPE-19; experiment: Blue light-induced damage to A2E-pretreated ARPE-19 cells, cell survival (MTT); details: 12.5˜50 μmol/L
Description: ARPE-19 cells were seeded into RPMI-1640 low-glucose cell culture medium containing 10% fetal bovine serum and 1% dual-antibiotics (penicillin-streptomycin), and the medium was replaced once every 3 days for future use.
Cells at exponential growth phase were used, and cells at 500 μl/well were seeded to a 24-well cell culture plate at a concentration of 5×10^4 cells/mL, and cultured in a humidified atmosphere at 37° C. and 5% CO2. After the cells fully adhered, the medium was replaced with the DMEM culture medium containing 25 μmol/L N-retinylidene-N-retinyl ethanolamine (A2E) for 2 hours of culture. Then, the supernatant was discarded, and the cells were washed 3 times with PBS, added with the luteolin-7-O-glucoside and luteolin-7-O-glucuronide with final concentrations of 12.5 μmol/L, 25 μmol/L, and […] respectively for 6 h of continuous culture, and then placed in a blue light device (50W LED blue light board with a blue light intensity of 3230˜3540 Lux) for 4 h of irradiation. After the light irradiation, the cells were placed in a 37° C. and 5% CO2 incubator again and continued to incubate for 24 h. […] The OD values were measured with a multi-well microplate reader at 490 nm, and the cell survival rate was calculated as follows: cell survival rate=(OD value of experimental group−OD value of blank group)/(OD of control group−OD of blank group)×100%. […]

Row | SMILES | cell status / nuclear condensation (Hoechst 33342, apoptosis) [1] | cytotoxicity on ARPE-19 (in words) [2] | intracellular fluorescence intensity (ROS content, DHE staining) [3] | concentration dependence of the cell survival rate (in words) [4]
1 | O=c1cc(-c2ccc(O)c(O)c2)oc2cc(O[C@@H]3O[C@H](CO)[C@@H](O)[C@H](O)[C@H]3O)cc(O)c12 [luteolin-7-O-glucoside] | the cell status had obviously improved | no cytotoxicity | decreased significantly as the dose increased | concentration-dependent
2 | O=C(O)[C@H]1O[C@@H](Oc2cc(O)c3c(=O)cc(-c4ccc(O)c(O)c4)oc3c2)[C@H](O)[C@@H](O)[C@@H]1O [luteolin-7-O-glucuronide] | – | no cytotoxicity | – | concentration-dependent
